{"source": "patent US9630949B2", "about": "“Oxoazetidine derivatives, process for the preparation thereof and use thereof in human medicine and in cosmetics” (GALDERMA RESEARCH & DEVELOPMENT, priority 2008, dated 2017)", "key": {"hMC1R": {"biological_target": "hMC1R (Homo sapiens (Human), UniProt Q01726)", "sequence (Q01726 whole entry)": "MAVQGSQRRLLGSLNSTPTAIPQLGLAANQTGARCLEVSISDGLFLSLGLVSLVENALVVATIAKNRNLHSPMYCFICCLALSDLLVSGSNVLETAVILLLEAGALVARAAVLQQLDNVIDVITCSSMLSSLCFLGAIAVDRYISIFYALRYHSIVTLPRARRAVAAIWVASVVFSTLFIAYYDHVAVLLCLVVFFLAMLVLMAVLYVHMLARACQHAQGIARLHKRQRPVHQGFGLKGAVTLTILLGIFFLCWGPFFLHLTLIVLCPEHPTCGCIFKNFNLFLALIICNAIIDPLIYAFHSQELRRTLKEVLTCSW", "experiment": "Transactivation test: melanocortin receptors (pCRE-Luc luciferase reporter), hMC1R", "assay_type": "cell-based", "details": "HEK293 transfected with pCRE-Luc and hMC1R; products tested alone (agonist), 6 h incubation; % activity vs NDP-MSH 10 nM; IA: inactive", "outline": "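HEK293 cells carrying the pCRE-Luc reporter and hMC1R vectors were grown in DMEM with 10% foetal calf serum at 37° C., 5% CO2, then plated at 5000 cells per well in 384-well plates in serum-free DMEM overnight. Products dissolved at 10 mM in DMSO were added alone as 10-point, 4-fold dilutions from 10 μM (0.1% DMSO) and incubated 6 h. Luciferase luminescence was read on Top-Count after lysis with luciferin, normalized to NDP-MSH 10 nM (100%) and cells alone (0%), and EC50 in nM derived with XLFit.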"}, "hMC4R": {"biological_target": "hMC4R (Homo sapiens (Human), UniProt P32245)", "sequence (P32245 whole entry)": "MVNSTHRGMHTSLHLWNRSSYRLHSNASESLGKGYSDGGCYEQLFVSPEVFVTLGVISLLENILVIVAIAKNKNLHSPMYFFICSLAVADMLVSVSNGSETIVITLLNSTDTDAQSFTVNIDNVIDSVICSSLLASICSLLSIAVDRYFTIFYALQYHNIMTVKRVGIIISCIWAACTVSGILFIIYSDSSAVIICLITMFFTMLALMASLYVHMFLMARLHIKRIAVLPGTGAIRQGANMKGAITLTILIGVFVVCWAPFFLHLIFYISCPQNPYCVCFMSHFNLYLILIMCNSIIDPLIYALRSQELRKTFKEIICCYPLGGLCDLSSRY", "experiment": "Transactivation test: melanocortin receptors (pCRE-Luc luciferase reporter), hMC4R", "assay_type": "cell-based", "details": "HEK293 transfected with pCRE-Luc and hMC4R; products tested alone (agonist), 6 h incubation; % activity vs NDP-MSH 10 nM; IA: inactive"}}, "data": [{"smiles": "CC#CCC1(c2ccccc2C)CN(C(=O)[C@@H](Cc2ccc(OC)cc2)NC(=O)CCc2c[nH]cn2)C1", "note": "[Compound 75, N-[(R)-2-(3-But-2-ynyl-3-o-tolylazetidin-1-yl)-1-(4-methoxybenzyl)-2-oxoethyl]-3-(1H-imidazol-4-yl)propionamide]", "values": [{"measurement": "EC50", "setting": "hMC1R", "result": 60, "unit": "nM"}, {"measurement": "EC50", "setting": "hMC4R", "result": 4000, "unit": "nM"}]}, {"smiles": "CC#CCOC1(c2ccccc2C)CN(C(=O)[C@@H](Cc2ccc(OC)cc2)NC(=O)CCc2nc[nH]c2C)C1", "note": "[Compound 76, N-[(R)-2-(3-But-2-ynyloxy-3-o-tolylazetidin-1-yl)-1-(4-methoxybenzyl)-2-oxoethyl]-3-(5-methyl-1H-imidazol-4-yl)propionamide]", "values": [{"measurement": "EC50", "setting": "hMC1R", "result": 30, "unit": "nM"}, {"measurement": "EC50", "setting": "hMC4R", "result": 4000, "unit": "nM"}]}, {"smiles": "COc1ccc(C[C@@H](NC(=O)CCc2c[nH]cn2)C(=O)N2CC(OCC3CCCCC3)(c3ccccc3C)C2)cc1", "note": "[Compound 77, N-[(R)-2-(3-Cyclohexylmethoxy-3-o-tolylazetidin-1-yl)-1-(4-methoxybenzyl)-2-oxoethyl]-3-(1H-imidazol-4-yl)propionamide]", "values": [{"measurement": "EC50", "setting": "hMC1R", "result": 120, "unit": "nM"}, {"measurement": "EC50", "setting": "hMC4R", "result": 2000, "unit": "nM"}]}, {"smiles": "COc1ccc(C[C@@H](NC(=O)CCc2c[nH]cn2)C(=O)N2CC(OCCCC(F)(F)F)(c3ccccc3C)C2)cc1", "note": "[Compound 78]", "values": [{"measurement": "EC50", "setting": "hMC1R", "result": 120, "unit": "nM"}, {"measurement": "EC50", "setting": "hMC4R", "result": 2000, "unit": "nM"}]}, {"smiles": "COc1ccc(C[C@@H](NC(=O)CCc2nc[nH]c2C)C(=O)N2CC(OCC3CCC3)(c3ccccc3C)C2)cc1", "note": "[Compound 79, N-[(R)-2-(3-Cyclobutylmethoxy-3-o-tolylazetidin-1-yl)-1-(4-methoxybenzyl)-2-oxoethyl]-3-(5-methyl-1H-imidazol-4-yl)propionamide]", "values": [{"measurement": "EC50", "setting": "hMC1R", "result": 15, "unit": "nM"}, {"measurement": "EC50", "setting": "hMC4R", "result": 1000, "unit": "nM"}]}, {"smiles": "COc1ccc(C[C@@H](NC(=O)CCc2nc[nH]c2C)C(=O)N2CC(OCC=C(C)C)(c3ccccc3C)C2)cc1", "note": "[Compound 80, N-[(R)-1-(4-Methoxybenzyl)-2-[3-(3-methylbut-2-enyloxy)-3-o-tolylazetidin-1-yl]-2-oxoethyl)-3-(5-methyl-1H-imidazol-4-yl)propionamide]", "values": [{"measurement": "EC50", "setting": "hMC1R", "result": 15, "unit": "nM"}, {"measurement": "EC50", "setting": "hMC4R", "result": 4000, "unit": "nM"}]}]}
